Experimental data from patent US7754772B2, “Nitrosated nonsteroidal antiinflammatory compounds, compositions and methods of use” (NicOx, S.A., priority 2002, dated 2010).

Key:
[1] = system: Male Sprague Dawley rats, gastric hemorrhagic lesion; assay: rat gastric lesion test; details: rat fasted 24 hours, oral gavage, lesion score (summed length, mm) three hours after dosing; ratio relative to parent NSAID (Naproxen = 1)
Method: Male Sprague Dawley rats (Charles River Laboratories, Wilmington, Mass.) weighing 230-250 g were used for the experiments. The rats were housed with laboratory chow and water ad libitum prior to the study. The rats were fasted for 24 hours with free access to water and then dosed by oral gavage with vehicle or with test compounds given at a volume of 0.5 mL/100 g. […] Rats were euthanized by CO2 three hours after dosing. The stomachs were dissected along the greater curvature, washed with a directed stream of 0.9% saline and pinned open on a sylgard based petri dish for examination of the hemorrhagic lesion. Gastric lesion score was expressed in mm and calculated by summing the length of each lesion.

| SMILES | melting point | Relative Activity Gastric Lesion [1] |
| --- | --- | --- |
| O=C(COC(=O)Cc1ccccc1Nc1c(Cl)cccc1Cl)NCCO[N+](=O)[O-] [Example 57, (N-(2-(Nitrooxy)ethyl)carbamoyl)methyl 2-(2-((2,6-dichlorophenyl)amino)phenyl)acetate] | 81 to 83 °C |  |
| COc1ccc2c(c1)c(CC(=O)O[C@H]1CO[C@H]3[C@H]1OC[C@H]3O[N+](=O)[O-])c(C)n2C(=O)c1ccc(Cl)cc1 [Example 46, (1S,2S,5S,6R)-6-(Nitrooxy)-4,8-dioxabicyclo(3.3.0)oct-2-yl 2-(1-((4 chlorophenyl)carbonyl)-5-methoxy-2-methylindol-3-yl)acetate] | 159 to 160 °C |  |
| COc1ccc2cc([C@H](C)C(=O)OCCN(C)C(=O)c3ccc(CO[N+](=O)[O-])cc3)ccc2c1 [Example 45, 2-(N-Methyl(4-((nitrooxy)methyl)phenyl)carbonylamino)ethyl (2S)-2-(6-methoxy(2-naphthyl))propanoate] | 108 to 115 °C |  |
| COc1ccc2cc([C@H](C)C(=O)OCC(=O)COC(=O)Cc3ccc(CO[N+](=O)[O-])cc3)ccc2c1 [Example 30, 3-(2-(4-((Nitrooxy)methyl)phenyl)acetyloxy)-2-oxopropyl (2S)-2-(6-methoxy(2-naphthyl))propanoate] | 92 to 95 °C |  |
| COc1ccc2cc([C@H](C)C(=O)OCC(=O)COC(=O)c3ccc(CO[N+](=O)[O-])cc3)ccc2c1 [Example 11, 3-(4-((Nitrooxy)methyl)phenylcarbonyloxy)-2-oxopropyl (2S)-2-(6-methoxy(2-naphthyl))propanoate] | 105 to 107 °C |  |
| COc1ccc2c(c1)c(CC(=O)OCC(=O)NCCO[N+](=O)[O-])c(C)n2C(=O)c1ccc(Cl)cc1 [Example 56, (N-(2-(Nitrooxy)ethyl)carbamoyl)methyl 2-(1-((4-chlorophenyl)carbonyl)-5-methoxy-2-methylindol-3-yl)acetate] | 128 to 129 °C |  |
| COc1ccc2cc([C@H](C)C(=O)OC[C@@H](CO[N+](=O)[O-])O[N+](=O)[O-])ccc2c1 [Example 27c, (2S)-2,3-Bis(nitrooxy)propyl (2S)-2-(6-methoxy(2-naphthyl))propanoate] |  | 0.20 |
| COc1ccc2cc([C@H](C)C(=O)OCCN(CCO[N+](=O)[O-])S(=O)(=O)c3ccc(C)cc3)ccc2c1 [Example 48, 2-(((4-Methylphenyl)sulfonyl)(2-(nitrooxy)ethyl)amino)ethyl (2S)-2-(6-methoxy(2-naphthyl))propanoate] | 92 to 95 °C |  |
| COc1ccc2cc([C@H](C)C(=O)SCCCCO[N+](=O)[O-])ccc2c1 [Example 54, (2S)-2-(6-methoxy(2-naphthyl))-1-(4-(nitrooxy)butylthio)propan-1-one] | 30 to 35 °C |  |
| COc1ccc2cc([C@H](C)C(=O)OCC(CO[N+](=O)[O-])(CO[N+](=O)[O-])[N+](=O)[O-])ccc2c1 [Example 13, 2-Nitro-3-(nitrooxy)-2-((nitrooxy)methyl)propyl (2S)-2-(6-methoxy(2-naphthyl))propanoate] | 69 to 71 °C | 0.55 |
| COc1ccc2cc([C@H](C)C(=O)O)ccc2c1 [Naproxen, (2S)-2-(6-methoxy(2-naphthyl))propanoic acid, reference compound] |  | 1 |

Further lines, results first:

| melting point | Relative Activity Gastric Lesion [1] | SMILES |
| --- | --- | --- |
| 80 to 81 °C |  | COc1ccc2cc([C@H](C)C(=O)OCC(=O)N(C)CCO[N+](=O)[O-])ccc2c1 [Example 17, (N-Methyl-N-(2-(nitrooxy)ethyl)carbamoyl)methyl (2S)-2-(6-methoxy(2-naphthyl))propanoate] |
| 55 to 58 °C |  | COc1ccc2cc([C@H](C)C(=O)OCCOC(=O)C(=O)OCCCO[N+](=O)[O-])ccc2c1 [Example 40, 2-((2S)-2-(6-Methoxy(2-naphthyl))propanoyloxy)ethyl 3-(nitrooxy)-propyl ethane-1,2-dioate] |
| 51 to 53 °C |  | COc1ccc2cc(C(C)C(=O)OCC(=O)NCCCO[N+](=O)[O-])ccc2c1 (stereo not shown) [Example 24, (N-(3-(Nitrooxy)propyl)carbamoyl)methyl 2-(6-methoxy-2-naphthyl)propanoate] |
| 71 to 73 °C | 0.03 | COc1ccc2cc([C@H](C)C(=O)OCC(=O)N(C)CC(=O)OCCO[N+](=O)[O-])ccc2c1 [Example 20, (N-Methyl-N-(((2-(nitrooxy)ethyl)oxycarbonyl)methyl)carbamoyl)methyl (2S)-2-(6-methoxy(2-naphthyl))propanoate] |
| 79 to 81 °C |  | COc1ccc2cc([C@H](C)C(=O)OCC(=O)N(C)CC(=O)NCCO[N+](=O)[O-])ccc2c1 [Example 22, (N-Methyl-N-((N-(2-(nitrooxy)ethyl)carbamoyl)methyl)carbamoyl)methyl (2S)-2-(6-methoxy(2-naphthyl))propanoate] |
| 44 to 45 °C |  | COc1ccc2cc(C(C)C(=O)OCC(=O)OCCO[N+](=O)[O-])ccc2c1 (stereo not shown) [Example 23, ((2-(Nitrooxy)ethyl)oxycarbonyl)methyl 2-(6-methoxy-2-naphthyl)propanoate] |
| 41 to 43 °C | 0.19 | COc1ccc2cc([C@H](C)C(=O)OCC(=O)N(C)CC(=O)OCCCO[N+](=O)[O-])ccc2c1 [Example 21, (N-Methyl-N-(((3-(nitrooxy)propyl)oxycarbonyl)methyl)carbamoyl)methyl (2S)-2-(6-methoxy(2-naphthyl))propanoate] |
| 104 to 105 °C | 0.02 | COc1ccc2cc([C@H](C)C(=O)OCC(=O)N(C)CCCO[N+](=O)[O-])ccc2c1 [Example 34, (N-methyl-N-(3-(nitrooxy)propyl)carbamoyl)methyl (2S)-2-(6-methoxy(2-naphthyl))propanoate] |
|  | 0.06 | COc1ccc2cc([C@H](C)C(=O)Oc3ccc(C(=O)OCCO[N+](=O)[O-])cc3)ccc2c1 [Example 32, 4-((2-(Nitrooxy)ethyl)oxycarbonyl)phenyl (2S)-2-(6-methoxy(2-naphthyl))propanoate] |
| 67 to 69 °C | 0.04 | COc1ccc2cc([C@H](C)C(=O)OCCOc3ccc(OCCO[N+](=O)[O-])cc3)ccc2c1 [Example 39, 2-(4-(2-(Nitrooxy)ethoxy)phenoxy)ethyl (2S)-2-(6-methoxy(2-naphthyl))propanoate] |
| 33 to 37 °C | 0.32 | COc1ccc2cc([C@H](C)C(=O)OCCSCCO[N+](=O)[O-])ccc2c1 [Example 1, 2-(2-(Nitrooxy)ethylthio)ethyl (2S)-2-(6-methoxy(2-naphthyl))propanoate] |
| 117 to 119 °C |  | COc1ccc2cc([C@H](C)C(=O)NNC(=O)CCCO[N+](=O)[O-])ccc2c1 [Example 41, N-((2S)-2-(6-Methoxy(2-naphthyl))propanoylamino)-4 (nitrooxy)butanamide] |
| 56 to 57 °C | 0.15 | COc1ccc2cc([C@H](C)C(=O)OCCOC(=O)NCCO[N+](=O)[O-])ccc2c1 [Example 14, 2-(N-(2-(Nitrooxy)ethyl)carbamoyloxy)ethyl (2S)-2-(6-methoxy(2-naphthyl))propanoate] |
